Experimental data reported in PubChem BioAssay AID1626 (SRMLSC, 2009).

System: M. tuberculosis H37Rv growth inhibition
Experiment: M. tuberculosis H37Rv growth inhibitors, H37Rv strain (AID 1626)
Conditions: for IC90: measured here: IC90 against H37Rv; for CC50: measured here: Vero cell cytotoxicity

| Compound | IC90 | IC50 | CC50 |
| --- | --- | --- | --- |
| CCOc1ccc(N=CC2=C(O)CC(C)(C)CC2=O)cc1 | > 100 µM |  |  |
| O=C1Nc2ccccc2C1=Nc1ccc(S(=O)(=O)Nc2nccs2)cc1 | 11.3 µM | 4.54 µM |  |
| c1ccc(-c2cc3c(NCC4COc5ccccc5O4)ncnc3s2)cc1 (configuration not stated) | > 100 µM |  | > 40 µM |
| Cc1nn(Cc2ccccc2Cl)c2sc(C(=O)NCc3ccc4c(c3)OCO4)cc12 | 7.16 µM | 5.45 µM |  |
| COc1c(C)cc(C(=O)C2CCCN(Cc3cccc(C)n3)C2)cc1C (configuration not stated) | > 100 µM | 18.6 µM | > 40 µM |
| O=C(CCl)N(c1ccccc1)c1ccccc1 | 17.6 µM | 5.73 µM | 1.69 µM |
| Cc1ccc2nc(/C(C#N)=C\c3ccc([N+](=O)[O-])o3)[nH]c2c1 | < 0.195 µM | < 0.195 µM | 3.11 µM |
| COc1ccc(NC(=O)N2CCN(c3nc(-c4cccc(OC)c4)cs3)CC2)cc1 | > 100 µM | 9.47 µM | > 40 µM |
| O=C1OC(/C(=C\Nc2cc(Cl)ccc2O)[N+](=O)[O-])c2ccccc21 (configuration not stated) | > 100 µM | 57.2 µM | > 40 µM |
| Cc1ccc(-c2nnc(SCC#CCOC(=O)c3ccco3)o2)cc1 | 3.43 µM | < 0.391 µM |  |
| Cc1ccc(S(=O)(=O)CCc2nnc(NC(=O)c3ccccn3)s2)cc1 |  |  | 38 µM |
| O=C(NCCCn1ccnc1)c1nn2c(C(F)(F)F)cc(-c3ccc(Br)cc3)nc2c1Cl | 9.35 µM | 6.53 µM | > 40 µM |
| COc1cccc(CC2(CO)CCCN(Cc3[nH]c4ccc(C)cc4c3C)C2)c1 (configuration not stated) | 11.2 µM | 8.49 µM | > 40 µM |
| CCOC(=O)c1ccc(NC(=O)N2CCN(Cc3ccccc3)CC2)cc1 | > 100 µM |  |  |
| CC1(C)Cc2c(C#N)c(N3CCN(C(=O)c4ccccc4)CC3)nc(Cc3ccccc3)c2CO1 | 18.7 µM | 10.5 µM | > 40 µM |
| O=C(CCCSc1nnc(SCCCC(=O)c2ccc(F)cc2)s1)c1ccc(F)cc1 | 0.654 µM | 0.516 µM | 26.4 µM |
| c1ccc(-c2cc3c(N4CCN(c5ccccc5)CC4)ncnc3s2)cc1 | > 100 µM | 11.3 µM |  |
| COc1cc(N=C2C(=O)N3c4c(cccc42)C(C)=CC3(C)C)cc(OC)c1 | > 100 µM | 46.9 µM |  |
| Clc1nc(-c2ccccn2)nc2scc(-c3ccccc3)c12 | 15.5 µM | 9.23 µM | 19.9 µM |
| O=C1N=C(N2CCOCC2)S/C1=C/c1ccc(-c2ccc(F)cc2)o1 | > 100 µM |  |  |

| Compound | IC90 | IC50 | CC50 |
| --- | --- | --- | --- |
| CC(C)(C)NC(=O)COC(=O)c1cc(Br)ccc1Cl | > 100 µM | 11.9 µM |  |
| CNC(=O)C(=O)Nc1nc(C23CC4CC(CC(C4)C2)C3)cs1 | > 100 µM | 62.7 µM |  |
| Cc1ccc(-c2noc(-c3cc4ccccc4oc3=O)n2)cc1 | > 100 µM | 1.5 µM |  |
| CCN(CC(=O)NC(C)(C)C)C(=O)COc1c(Cl)cc(Cl)c2ccc(C)nc12 | 13.9 µM | 3.94 µM | 36.8 µM |
| CCOC(=O)c1cnc2ccc(OCC)cc2c1NCc1ccccc1 | 22.2 µM | 15.7 µM | > 40 µM |
| c1ccc(-c2oc3ncnc(NCCCn4ccnc4)c3c2-c2ccccc2)cc1 | 16.4 µM | 7.29 µM | 23.6 µM |
| Cc1cccc(C)c1N1CCN(c2ccc3nnc(C(F)(F)F)n3n2)CC1 | 61.8 µM | 11.8 µM | > 40 µM |
| [O-][n+]1onc2c3cc(-c4ccccc4)nnc3ccc21 | 0.443 µM | < 0.195 µM |  |
| FC(F)(F)c1ccc(N2CCOCC2)c(Nc2nc3ccccc3n3cnnc23)c1 | 18.3 µM | 8.57 µM | 24.5 µM |
| Cc1ccc(-c2c[n+](CC(=O)N3c4ccccc4Sc4ccccc43)c3n2CCC3)cc1 | 20.6 µM | 7.87 µM |  |
| COCC(=O)Nc1ccc(Br)c(C)c1 | > 100 µM |  |  |
| Cn1c(NC(=O)c2cccc(Cn3cc(Cl)cn3)c2)nc2ccccc21 |  |  | > 40 µM |
| O=C(Nc1ccc(Oc2ccccc2)cc1)C1CC1 | > 100 µM | 14 µM | > 40 µM |
| COc1ccc(NC(=O)CSCc2ccc(C)cc2)cc1 | > 100 µM | 26.5 µM |  |
| CCCCCc1cc(=O)oc2c(C(CCN3CCCC(C)C3)c3cc(OC)c(OC)c(OC)c3)c(OC)cc(OC)c12 (configuration not stated) | 9.84 µM | 7.65 µM | 14.5 µM |
| CCOc1[nH]n(-c2ccccc2)c(=O)c1C=Nc1ccc(OC)cc1 | > 100 µM |  |  |
| CCn1c(COc2cccc3ccccc23)nnc1SCC(=O)OC1CCCCC1 | 14.1 µM | 4.04 µM |  |
| O=C(COc1cccc(Cl)c1)Nc1ccc2c(c1)CCC2 | > 100 µM | 22.4 µM |  |
| COc1ccc(-c2cc(C(=O)Nc3nc4ccccc4s3)c3ccccc3n2)cc1OC | > 100 µM | 4.02 µM |  |
| Cc1ccc(-c2nc3c(cnn3-c3ccccc3)c(=O)o2)cc1 | 13.4 µM | 6.21 µM |  |

| Compound | IC90 | IC50 | CC50 |
| --- | --- | --- | --- |
| CCCC(=O)OCCNc1cc(Sc2nccn2C)c2nonc2c1[N+](=O)[O-] | 31.6 µM | 17.9 µM | 19.2 µM |
| CSc1ccc(NC(=O)N2CC=C(n3c(=O)[nH]c4ccccc43)CC2)cc1 |  |  | > 40 µM |
| Clc1ccc(COC(Cn2ccnc2)c2ccc(Cl)cc2Cl)c(Cl)c1 (configuration not stated) | 3.27 µM | 2.85 µM | 36.8 µM |
| Cc1cc(NC(=O)c2c(F)cccc2Cl)n(-c2nc3ccccc3[nH]2)n1 | 25.9 µM | 16.5 µM | > 40 µM |
| Oc1cc(-c2ccccc2)c2ccccc2c1 | > 100 µM | 27.2 µM | > 40 µM |
| CCOC(=O)c1ccc(NC(=O)CSc2ccc(-c3cccnc3)nn2)cc1 | > 100 µM | 29.1 µM | > 40 µM |
| Nc1nc(Cl)cc(N2CCC(c3cc(-c4ccc(Cl)cc4)n[nH]3)CC2)n1 | > 100 µM | 77.9 µM | 13.6 µM |
| CCc1cc2cc(C(=O)Nc3ccc(C)cc3)sc2s1 | 1.81 µM | 1.34 µM |  |
| Nc1nc(CN2CCN(C(c3ccccc3)c3ccccc3)CC2)nc(Nc2ccccc2)n1 | > 100 µM | 36.4 µM | > 40 µM |
| Cc1cccc(CN2C(=O)[C@@H]3Cc4c([nH]c5ccccc45)C(C)(C)N3C2=O)c1 | 14.3 µM | 8.69 µM | > 40 µM |
| Cc1cccc(N2CCN(C(=O)/C=C/c3cccs3)CC2C)c1 (configuration not stated) | 26.5 µM | 23.4 µM |  |
| COC(=O)CSc1ccnc2cc(Cl)ccc12 | 12.3 µM | 4.25 µM |  |
| COc1ccc(-c2n(CC(=O)OC3CC(C)CCC3C(C)C)c3ccccc3[n+]2C)cc1 (configuration not stated) | 2.37 µM | 0.985 µM | 23.9 µM |
| Cc1ccc(-c2cc(C(F)F)n3ncc(C(=O)Nc4c(C)nn(Cc5ccccc5Cl)c4C)c3n2)cc1 | > 100 µM | 2.16 µM | 24.4 µM |
| COc1ccc(NC(=O)CCc2nc(-c3ccccc3F)no2)cc1 | > 100 µM |  |  |
| Fc1ccc(-c2nnc(CSc3nnc(-c4cccs4)o3)o2)cc1 | > 100 µM |  |  |
| Cc1ccn2c(Nc3ccccc3)c(-c3ccccn3)nc2c1 | 3.3 µM | 2.88 µM | 2.12 µM |
| Cc1ccc(NC(=O)c2ccc(CSc3nccc(C)n3)cc2)cc1 | > 100 µM | 12.2 µM |  |
| COc1cc(OC)c2c(-c3ccccc3)cc(=O)oc2c1C(CCN1CCCC(C)C1)c1ccc2c(c1)OCO2 (configuration not stated) | 10.4 µM | 5.64 µM | 24.3 µM |
